Source: patent US20120070390A1, “Topical drug delivery system with dual carriers” (priority 2010, published 2012)
Like-named read-outs stand apart in the source and are kept apart here.

Experiments:
Enterococcus faecalis = assay: Petri dish zone of inhibition comparison with control agents; format: cell-based; details: FIG. 25, identical size drops
[1] = Study I: vancomycin peaks and troughs in the patient; format: in vivo, human; details: 1.5 g BID, Q12, seven doses; ranges not noted
Method: Fri 2/5: Detection of a Strep-A strain, confirmed by culture study. Shifted from gentamycin to vancomycin 1.5 g BID, Q12. Patient was kept on this dosing regimen until 2/8 (date of discharge from hospital).
Mon 2/8: Patient received the last of seven doses of vancomycin. Throughout all of this their peaks (within 1 hour of receiving vancomycin) and troughs (before receiving vancomycin) were normal (ranges not noted here). Patient was discharged from the hospital on this date.

[2] = system: MRSA infection and Grade I diabetic ulcer of the left hallux with cellulitus; assay: Study III: human field study, diabetic foot lesion with MRSA cellulitus; format: in vivo; details: IV, 8 days following admission, before the invention was used
Method: In this embodiment, the additional ingredient to hasten a third therapeutic tissue healing effect was added. This embodiment used vitamin D in a small but medically efficacious amount.

MRSA = assay: Petri dish zone of inhibition test; format: cell-based, Methicillin Resistant Staph Aureus; details: FIG. 17, identical size drops (diameters of ZOA)
Staph aureus = assay: Petri dish zone of inhibition comparison with control agents; format: cell-based, Staphylococcus aureus; details: FIG. 16, identical size drops (diameters of ZOA)
HL-60 cells = details: cited from earlier work; for subsequent retinoid-induced TGM2 expression after priming by pretreatment: HL-60 cells, short exposure
[3] = system: mouse embryonic stem cells and embryoid bodies; details: cited from earlier work

Molecule: CN[C@H](CC(C)C)C(=O)N[C@H]1C(=O)N[C@@H](CC(N)=O)C(=O)N[C@H]2C(=O)N[C@H]3C(=O)N[C@H](C(=O)N[C@H](C(=O)O)c4cc(O)cc(O)c4-c4cc3ccc4O)[C@H](O)c3ccc(c(Cl)c3)Oc3cc2cc(c3O[C@@H]2O[C@H](CO)[C@@H](O)[C@H](O)[C@H]2O[C@H]2C[C@](C)(N)[C@H](O)[C@H](C)O2)Oc2ccc(cc2Cl)[C@H]1O [Vancomycin]
- zones of inhibition of control agents compared with the formulations of the invention (Enterococcus faecalis): considerably reduced zones of inhibition
- peaks (within 1 hour of receiving) and troughs (before receiving) [1]: normal
- patient response to treatment [2]: did not respond

Molecule: CC[C@H]1OC(=O)[C@H](C)[C@@H](O[C@H]2C[C@@](C)(OC)[C@@H](O)[C@H](C)O2)[C@H](C)[C@@H](O[C@@H]2O[C@H](C)C[C@H](N(C)C)[C@H]2O)[C@](C)(O)C[C@@H](C)C(=O)[C@H](C)[C@@H](O)[C@]1(C)O [Erythromycin]
- zones of inhibition of control agents compared with the formulations of the invention (MRSA): considerably reduced zones of inhibition
- zones of inhibition of control agents compared with the formulations of the invention (Staph aureus): considerably reduced zones of inhibition

Molecule: vitamin D
- subsequent retinoid-induced TGM2 expression after priming by pretreatment (HL-60 cells): increases subsequent retinoid-induced TGM2 expression
- amount at which desired cellular responses occurred (HL-60 cells; vitamin D): about 100 nM

Molecule: CO[C@@]1(NC(=O)Cc2cccs2)C(=O)N2C(C(=O)O)=C(COC(N)=O)CS[C@@H]21 [Cefoxicillin]
- zones of inhibition of control agents compared with the formulations of the invention (MRSA): considerably reduced zones of inhibition

Molecule: C[S+](C)[O-] [DMSO, dimethyl sulfoxide]
- amount at which desired cellular responses occurred (HL-60 cells; DMSO): less than 2%
- subsequent retinoid-induced TGM2 expression after priming by pretreatment (HL-60 cells): increases subsequent retinoid-induced TGM2 expression
- mRNA and protein expression in epigenetic profiles [3]: upregulation of mRNA and protein expression
